Values joined by “and” are separate entries in the source; they are usually repeats but may differ in a detail not shown here. Equal values may be shown once. Read-outs that look alike come from different tables or passages of the source.
Experiments:
Assay type in all cases: cell-based, human
[1] = tested on: Cyclin B1, p-Cdc2 and P21 in MCF-7 cells; test: Western blot of cell cycle-related proteins; conditions: for P21, band quantification / cyclinB1, band quantification / pcdc2, band quantification: two runs
Method: Cell cycle regulatory proteins Cyclin B1 and Cdc2 are key proteins to control the transition from G2 to M phase through increasing the G2/M intracellular fraction in cell cycle distribution. Some agents produce cell cycle arrest by decreasing Cyclin B1 level ([Xiao et al., 2018]), while others increase the Cyclin B1 level, depending on the cell types ([Zhang et al., 2016]).
MCF-7 cells were seeded into […] dishes at a density of 6 × 10^5/dish and incubated for 24 h. After treating the cells with the compound 7m, the cells were cultured for 48 h and washed with PBS, and then the soluble and insoluble tubulin fractions were collected. Protein quantification was performed by BCA Protein Concentration Determination Kit following centrifugation at 12,000 rpm for 10 min at 4°C. Cell lysates were separated by SDS-PAGE at 80 V constant voltage for 30–40 min. […] After 5% skim milk was blocked for 1 h, the primary antibody was added and incubated overnight before being washed three times with PBST. The secondary antibody was incubated for 2 h at room temperature the next day and subsequently washed three times with PBST. Then the signal was detected with ECL.

HUVECs [2] = test: Transwell cell invasion experiment; conditions: 1, 5, 25 μΜ
Method: (§1) A wound healing assay was, thus, performed to evaluate the capacity of 7m to inhibit cell motility. […] Then the invasion inhibitory activities of 7m were further detected using Transwell assay with HUVECs cells treated with 0, 1, 5, and 25 μΜ of 7m. In this assay, […] were seeded into upper chambers which were pre-coated with Matrigel matrix in order to evaluate the cellular invasion.
The upper chamber of the Transwell chamber was filled with cells resuspended in serum-free medium, 6 × 10^4 cells per well, 100 μl per well, and the lower chamber was added with 10% FBS-containing medium prepared with different concentrations of 7m. The cells were allowed to migrate for 48 h at 37°C in an atmosphere of 5% CO2. Then the migration of cells to the underside of the filter was determined by crystal violet staining.

[3] = tested on: taxol-resistant MCF7 cells (MCF7/Tax); test: Growth inhibition of taxol-resistant cells
normal liver LO2 cells = test: Growth inhibition of normal cells
HUVECs [4] = test: Tube formation assay; conditions: 1, 5, 25 μM, 6–8 h
Method: HUVECs (human umbilical vein endothelial cells) grown on Matrigel were commonly used as a tube formation model and also a widely studied human endothelial cell type in angiogenesis, for their ability to alter their shape to resemble capillaries ([Aranda and Owen, 2009]). […] We therefore examined the effects of 7m on HUVEC tube formation to evaluate its potential effect on angiogenesis.
The HUVECs were seeded in 96-well plates and cultured for 24 h, and then incubated with 1, 5, and 25 μM 7m. The EC Matrigel matrix was thawed overnight at 4°C. The HUVECs, suspended in F12K, were seeded in a 96-well culture plate at a cell density of 10,000 cells/well after 45 min of Matrigel polymerization at 37°C. Then they were treated with different concentrations of 7m or carrier at 37°C for 6–8 h. Then the morphological changes of the formed cells and tubes under an inverted microscope were observed, and pictures were taken.

HUVECs [5] = test: Wound healing assay; conditions: 1, 5, 25 μΜ, 48 h
Method: as §1
MCF-7 cells and HUVECs cells were grown in 24-well plates at a density of 1 × 10^6 cells per well for 24 h. Scratches were made in confluent monolayers by […] pipette tips. The media containing different concentrations of 7m were added to the Petri dishes. […] The migration distance of cells migrated to the wound area was measured manually.

MCF-7 cells = test: Apoptosis analysis, Annexin-V FITC/PI flow cytometry; conditions: for Late-apoptosis (Q2 of Annexin/PI plot), single runs / Pro-apoptosis (Q3 of Annexin/PI plot), single runs / percentage of apoptotic cells (early and late apoptosis): 48 h
Method: To test whether compound 7m induced reduction in cell viability was responsible for the induction of apoptosis, MCF-7 cells were stained with Annexin-V FITC/PI staining, and the number of apoptotic cells was estimated by flow cytometry.
The MCF-7 cells in 12-well plates (8 × 10^4 cells/well) were cultured for 24 h at 37°C in 5% CO2 and then incubated with 7m at concentrations of 100, 200, 400 nM, or vehicle to induce cell apoptosis for 48 h. Then the cells floating in the supernatant were combined with the adherent fraction and washed with PBS three times. The cells were incubated with Annexin V-FITC and PI for 15 min at 37°C in the dark. Apoptosis was quantified using a flow cytometer (Becton, Dickinson and Company, USA).

MCF-7 = test: Antiproliferative activity, SRB assay;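 also: proliferation of MCF7 cells quantified by sulforhodamine B staining, with optical density read at 560 nm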
Method: The synthesized compounds were first evaluated for their cytotoxic effect on MCF-7 (human breast adenocarcinoma), U937 (histiocytic lymphoma cancer), HepG2 (human liver cancer) cells, and MGC-803 (human gastric cancer) using the SRB and CCK-8 assay.
The primary tumor cells were purchased from a professional biomedical company. First, the primary tumor cells were incubated in a cell culture incubator at 37°C and 5% CO2. After the cell fusion reached 85%–95%, subculture was performed, and the tumor cells obtained at this time were used for subsequent related experiments. The CCK-8 method was used to inhibit the proliferation of U937 tumor cells, and the SRB method was used to inhibit the proliferation of MCF7 and HepG2 tumor cells.
Cells were distributed into 96-well plates with a density of 3 × 10^3–4 × 10^3 cells per well and incubated for 24 h in a 5% CO2 incubator at 37°C, followed by treatment with study compounds at different concentrations at 37°C for 72 h. One hundred microliters of 10% (w/v) trichloroacetic acid was added to each well, fixed at 4°C for 30 min, and dried at 65°C. Then 100 μl of 0.4% SRB was added to each well and stained on a shaker for 20 min at room temperature. The excess dye solution was washed with newly prepared 1% glacial acetic acid and dried at 65°C. One hundred fifty microliters of 10 mM unbuffered Trisbase was added to each well of the plate and shaken for 5 min to dissolve the dye. The microplate reader measured the optical density (OD) at a wavelength of 560 nm.

## 3-(benzofuran-6-yl)-2-methyl-1-(3,4,5-trimethoxyphenyl)prop-2-en-1-one [Compound 7m]
[1]; 100nM
  P21, band quantification: 0.4949 and 0.5407
  cyclinB1, band quantification: 1.376 and 1.378
  pcdc2, band quantification: 0.4445 and 0.4619
[1]; 200nM
  P21, band quantification: 0.4098 and 0.48
  cyclinB1, band quantification: 1.5822 and 1.545
  pcdc2, band quantification: 0.4706 and 0.4291
[1]; 400nM
  P21, band quantification: 0.006743 and 0.008008
  cyclinB1, band quantification: 1.8972 and 1.928
  pcdc2, band quantification: 0.2956 and 0.3089
[1]; 100, 200, 400 nM
  Cyclin B1 expression: overexpressed
  p-Cdc2 protein level: dose-dependently decreased
HUVECs [2]
  invasion ability of cells: invasion ability of cells gradually weakened
[3]; (IC50 MCF7/Tax)/(IC50 MCF7)
  Resistant fold: 1.2
[3]; three single determinations, read-out: MCF-7/Taxol (raw data of table 3, IC50)
  IC50: 242 nM and 181 nM and 216 nM
[3]; triplicate, read-out: IC50 ± SD, MCF7/Tax
  IC50: 213 ± 26 nM
Normal liver LO2 cells; (IC50 human normal cells LO2)/(IC50 MCF7)
  Selectivity ratio: 4.9
Normal liver LO2 cells; three single determinations, read-out: L02 (raw data of table 3, IC50)
  IC50: 885 nM and 871 nM and 914 nM
Normal liver LO2 cells; triplicate, read-out: IC50 ± SD, LO2
  IC50: 890 ± 14 nM
HUVECs [4]
  width and length of tubule-like network formation: reduced in a concentration-dependent manner
HUVECs [5]
  closure of wound scratching: obviously decreased the closure of wound scratching
MCF-7 cells; 100nM
  Late-apoptosis AVERAGE: 37.3
  Pro-apoptosis AVERAGE: 6.425
  Late-apoptosis (Q2 of Annexin/PI plot), single runs: 36 and 38.6
  Pro-apoptosis (Q3 of Annexin/PI plot), single runs: 7.59 and 5.26
  percentage of apoptotic cells (early and late apoptosis): 44%
MCF-7 cells; 200nM
  Late-apoptosis AVERAGE: 48.8
  Pro-apoptosis AVERAGE: 3.01
  Late-apoptosis (Q2 of Annexin/PI plot), single runs: 49.3 and 48.3
  Pro-apoptosis (Q3 of Annexin/PI plot), single runs: 3.29 and 2.73
  percentage of apoptotic cells (early and late apoptosis): 53%
MCF-7 cells; 400nM
  Late-apoptosis AVERAGE: 52.3
  Pro-apoptosis AVERAGE: 4.22
  Late-apoptosis (Q2 of Annexin/PI plot), single runs: 52.8 and 51.8
  Pro-apoptosis (Q3 of Annexin/PI plot), single runs: 4.66 and 3.78
  percentage of apoptotic cells (early and late apoptosis): 57%
MCF-7; 72 h, triplicate, mean ± SD, read-out: IC50 ± SD, MCF-7
  IC50: 183 ± 32 nM
MCF-7; Table 3, triplicate, read-out: IC50 ± SD, MCF7
  IC50: 183 ± 32 nM
MCF-7; three single determinations, read-out: MCF-7 (raw data of table 3, IC50)
  IC50: 146 nM and 223 nM and 180 nM
